Experimental data from ChEMBL document CHEMBL5154705, “Discovery and mechanistic study of thiazole-4-acylsulfonamide derivatives as potent and orally active ChemR23 inhibitors with a long-acting effect in cynomolgus monkeys” (Bioorg Med Chem, 2022).

Legend:
Assay type in all cases: ADME, organism-based, Macaca fascicularis
[1] = Drug concentration in cynomolgus monkey plasma at 1 mg/kg, po after 8 hrs
[2] = Cmax in cynomolgus monkey at 0.3 to 1 mg/kg, po; set-up: route po; conditions: in vivo, dose 0.3-1 mg/kg
[3] = Tmax in cynomolgus monkey at 0.3 to 1 mg/kg, po; conditions: in vivo, dose 0.3-1 mg/kg
[4] = Half life in cynomolgus monkey at 0.3 to 1 mg/kg, po; conditions: in vivo, dose 0.3-1 mg/kg
[5] = AUC(0 to infinity) in cynomolgus monkey at 0.3 to 1 mg/kg, po; set-up: route po; conditions: in vivo, dose 0.3-1 mg/kg
[6] = MRT in cynomolgus monkey at 0.3 to 1 mg/kg, po; conditions: in vivo, dose 0.3-1 mg/kg
[7] = Cmax in cynomolgus monkey at 0.3 mg/kg, po; set-up: dose 0.3 mg/kg, route po; conditions: in vivo
[8] = Drug concentration in cynomolgus monkey plasma at 0.3 mg/kg, po after 8 hrs
[9] = Tmax in cynomolgus monkey at 0.3 mg/kg, po; conditions: in vivo
[10] = Half life in cynomolgus monkey at 0.3 mg/kg, po; conditions: in vivo
[11] = AUC(0 to infinity) in cynomolgus monkey at 0.3 mg/kg, po; set-up: time infinity, dose 0.3 mg/kg, route po; conditions: in vivo
[12] = MRT in cynomolgus monkey at 0.3 mg/kg, po; conditions: in vivo
[13] = Drug concentration in plasma of cynomolgus monkey at 30 mg/kg, po after 4 hrs
[14] = Drug concentration in plasma of cynomolgus monkey at 30 mg/kg, po after 6 hrs
[15] = Drug concentration in plasma of cynomolgus monkey at 30 mg/kg, po after 8 hrs

- concentration at 8 h [1]: 2580 ng/mL
- Cmax [2]: 6960 ng/mL
- Tmax [3]: 2.7 h
- half-life [4]: 3.1 h
- AUC(0-inf) [5]: 53700 ng·h/mL
- MRT [6]: 6 h
- Cmax [7]: 1370 ng/mL
- concentration at 8 h [8]: 403 ng/mL
- Tmax [9]: 3.3 h
- half-life [10]: 3.3 h
- AUC(0-inf) [11]: 10200 ng·h/mL
- MRT [12]: 5.4 h
- concentration at 4 h [13]: 332 µM
- concentration at 6 h [14]: 233 µM
- concentration at 8 h [15]: 177 µM
SMILES: Cc1ccc(-c2nc(=O)o[nH]2)c(-c2ccc([C@@H](C)N(CC3CC3)c3nc(C(=O)NS(=O)(=O)C4CC4)c(C4CC4)s3)cc2)c1
